Test results published in US20100331348A1, “TROPANE DERIVATIVES USEFUL AS PESTICIDES” (SYNGENTA CROP PROTECTION, INC., priority 2007, published 2010).
Where two headings read alike, the source gives them in different places.

Tests used:
[1] = test system: Pyricularia oryzae; experiment: whole plant or invertebrate; format: in vivo; settings: foliar, 96 h
[2] = test system: Septoria tritici; experiment: Septoria tritici (leaf blotch) growth inhibition in nutrient broth; format: cell-based; settings: Zymoseptoria tritici, 72 hrs, read-out: control of fungal infection, Septoria tritici
[3] = test system: Heliothis virescens; experiment: Heliothis virescens (Tobacco budworm) egg test on artificial diet; settings: 96 h, read-out: control of Heliothis virescens
[4] = test system: Puccinia recondita f.sp. tritici; experiment: Puccinia recondita f.sp. tritici (wheat brown rust) leaf disk assay; format: in vivo; settings: foliar, 216 h, preventive, nine days after inoculation, read-out: control of fungal infection, Puccinia recondita f.sp. tritici
[5] = test system: Tetranychus urticae; settings: foliar, 192 h, read-out: control of Tetranychus urticae
[6] = test system: Aedes aegypti; experiment: Aedes aegypti (Yellow fever mosquito) larvae test; format: in vivo; settings: 48 h
[7] = test system: Spodoptera littoralis; experiment: Spodoptera littoralis (Egyptian cotton leafworm) cotton leaf disc test; settings: in Gossypium hirsutum, foliar, 72 h, read-out: control of Spodoptera littoralis
[8] = test system: Myzus persicae; experiment: Myzus persicae (Green peach aphid) sunflower leaf disc test; settings: foliar, 144 h, read-out: control of Myzus persicae
[9] = test system: Plutella xylostella; experiment: Plutella xylostella (Diamond back moth) artificial diet test; settings: 120 h, read-out: control of Plutella xylostella
[10] = test system: Plasmopara viticola; experiment: Plasmopara viticola (downy mildew of grapevine) leaf disk assay; format: in vivo; settings: foliar, 168 h, preventive, seven days after inoculation, read-out: control of fungal infection, Plasmopara viticola
[11] = test system: Phytophthora infestans; experiment: whole plant or invertebrate; format: in vivo; settings: foliar, 96 h, read-out: control of fungal infection, Phytophthora infestans
[12] = test system: Pythium ultimum; experiment: Pythium ultimum (Damping off) growth inhibition in potato dextrose broth; format: cell-based; settings: Globisporangium ultimum, 48 hours, read-out: control of fungal infection, Pythium ultimum
[13] = test system: Erysiphe graminis f.sp. tritici; experiment: Erysiphe graminis f.sp. tritici (wheat powdery mildew) leaf disk assay; format: in vivo; settings: Blumeria graminis, foliar, 96 h, preventive, four days after inoculation, read-out: control of fungal infection, Erysiphe graminis fsp. tritici
[14] = read-out: control of fungal infection, Pyricularia oryzae (at least 80% list)
[15] = read-out: control of fungal infection, Pyricularia oryzae (at least 60% list)

SMILES	pest or weed control at 200 ppm [1, 14] [%]	inhibition of growth at 200 ppm [2] [%]	pest or weed control at 200 ppm [3] [%]	pest or weed control at 200 ppm [4] [%]	pest or weed control at 200 ppm [5] [%]	pest or weed control at 2 ppm [6] [%]	pest or weed control at 200 ppm [7] [%]	pest or weed control at 200 ppm [8] [%]	pest or weed control at 200 ppm [1, 15] [%]	pest or weed control at 200 ppm [9] [%]	pest or weed control at 200 ppm [10] [%]	pest or weed control at 200 ppm [11] [%]	inhibition of growth at 200 ppm [12] [%]	pest or weed control at 200 ppm [13] [%]
CCc1ncnc(N2C3CCC2CC(=CCOc2ccc(C)nc2)C3)c1Cl [Example 3.14]	≥ 80	≥ 60	≥ 80	≥ 80	≥ 80	≥ 80	≥ 80	≥ 80						
Cc1ccc(C=C2CC3CCC(C2)N3c2ncnc3sccc23)cc1 [Example 3.32]	≥ 80		≥ 80	≥ 80	≥ 80	≥ 80	≥ 80	≥ 80	≥ 60	≥ 80	≥ 80			
Fc1cc(Br)ccc1CON=C1CC2CCC(C1)N2c1ncnc2sccc12 [Example 5.232]				≥ 80		≥ 80	≥ 80	≥ 80	≥ 60	≥ 80		≥ 80	≥ 60	≥ 80
CCc1ncnc(N2C3CCC2CC(=NOCc2ccc(F)cc2)C3)c1Cl [Example 5.30]			≥ 80	≥ 80		≥ 80	≥ 80	≥ 80	≥ 60	≥ 80				≥ 80
Fc1cccc(F)c1CON=C1CC2CCC(C1)N2c1ncnc2sccc12 [Example 5.215]	≥ 80			≥ 80	≥ 80	≥ 80	≥ 80	≥ 80	≥ 60	≥ 80	≥ 80			≥ 80
